Measurements as given in ChEMBL document CHEMBL5505997, “Synthesis and biological evaluation of novel peptidomimetic inhibitors of the coronavirus 3C-like protease” (Eur J Med Chem, 2024).

What was measured:
[1] = test system: SARS-CoV-2; assay: Selectivity ratio of EC50 for antiviral activity against SARS-CoV-2 Omicron BA.1 harboring NSP5 E166V mutant infected in HEK293T cells to EC50 for antiviral activity against wild type SARS-CoV-2 Omicron BA.1 infected in HEK293T cells; assay type: functional
[2] = test system: SARS-CoV-2; assay: Antiviral activity against SARS-CoV-2 WA1 harboring NSP5 L50F/E166V mutant infected in HEK293T cells measured after 48 hrs by Nano-Glo luciferase assay; assay type: functional, organism-based, Severe acute respiratory syndrome coronavirus 2
[3] = test system: SARS-CoV-2; assay: Selectivity ratio of EC50 for antiviral activity against SARS-CoV-2 WA1 harboring NSP5 L50F/E166A/L167F mutant infected in HEK293T cells to EC50 for antiviral activity against wild type SARS-CoV-2 WA1 infected in HEK293T cells; assay type: functional
[4] = test system: SARS-CoV-2; assay: Antiviral activity against SARS-CoV-2 WA1 harboring NSP5 L50F/E166A/L167F mutant infected in HEK293T cells measured after 48 hrs by Nano-Glo luciferase assay; assay type: functional, organism-based, Severe acute respiratory syndrome coronavirus 2
[5] = test system: SARS-CoV-2; assay: Selectivity ratio of EC50 for antiviral activity against SARS-CoV-2 Omicron BA.1 harboring NSP5 L50F/E166A/L167F mutant infected in HEK293T cells to EC50 for antiviral activity against wild type SARS-CoV-2 Omicron BA.1 infected in HEK293T cells; assay type: functional
[6] = test system: SARS-CoV-2; assay: Antiviral activity against SARS-CoV-2 WA1 harboring NSP5 E166V mutant infected in HEK293T cells measured after 48 hrs by Nano-Glo luciferase assay; assay type: functional, organism-based, Severe acute respiratory syndrome coronavirus 2
[7] = test system: SARS-CoV-2; assay: Antiviral activity against SARS-CoV-2 Omicron BA.1 harboring NSP5 L50F/E166V mutant infected in HEK293T cells measured after 48 hrs by Nano-Glo luciferase assay; assay type: functional, organism-based, Severe acute respiratory syndrome coronavirus 2
[8] = test system: SARS-CoV-2; assay: Antiviral activity against SARS-CoV-2 Omicron BA.1 harboring NSP5 L50F/E166A/L167F mutant infected in HEK293T cells measured after 48 hrs by Nano-Glo luciferase assay; assay type: functional, organism-based, Severe acute respiratory syndrome coronavirus 2
[9] = test system: SARS-CoV-2; assay: Antiviral activity against SARS-CoV-2 Omicron BA.1 harboring NSP5 E166V mutant infected in HEK293T cells measured after 48 hrs by Nano-Glo luciferase assay; assay type: functional, organism-based, Severe acute respiratory syndrome coronavirus 2
[10] = test system: SARS-CoV-2; assay: Selectivity ratio of EC50 for antiviral activity against SARS-CoV-2 WA1 harboring NSP5 E166V mutant infected in HEK293T cells to EC50 for antiviral activity against wild type SARS-CoV-2 WA1 infected in HEK293T cells; assay type: functional
[11] = test system: SARS-CoV-2; assay: Selectivity ratio of EC50 for antiviral activity against SARS-CoV-2 WA1 harboring NSP5 L50F/E166V mutant infected in HEK293T cells to EC50 for antiviral activity against wild type SARS-CoV-2 WA1 infected in HEK293T cells; assay type: functional
[12] = test system: SARS-CoV-2; assay: Selectivity ratio of EC50 for antiviral activity against SARS-CoV-2 Omicron BA.1 harboring NSP5 L50F/E166V mutant infected in HEK293T cells to EC50 for antiviral activity against wild type SARS-CoV-2 Omicron BA.1 infected in HEK293T cells; assay type: functional
[13] = test system: SARS-CoV-2; assay: Antiviral activity against SARS-CoV-2 Omicron BA.1 harboring NSP5 T21I mutant infected in HEK293T cells measured after 48 hrs by Nano-Glo luciferase assay; assay type: functional, organism-based, Severe acute respiratory syndrome coronavirus 2
[14] = test system: SARS-CoV-2; assay: Antiviral activity against SARS-CoV-2 WA1 harboring NSP5 T21I/E166V mutant infected in HEK293T cells measured after 48 hrs by Nano-Glo luciferase assay; assay type: functional, organism-based, Severe acute respiratory syndrome coronavirus 2
[15] = test system: SARS-CoV-2; assay: Antiviral activity against SARS-CoV-2 Omicron BA.1 harboring NSP5 T21I/E166V mutant infected in HEK293T cells measured after 48 hrs by Nano-Glo luciferase assay; assay type: functional, organism-based, Severe acute respiratory syndrome coronavirus 2
[16] = test system: SARS-CoV-2; assay: Antiviral activity against SARS-CoV-2 WA1 harboring NSP5 T21I mutant infected in HEK293T cells measured after 48 hrs by Nano-Glo luciferase assay; assay type: functional, organism-based, Severe acute respiratory syndrome coronavirus 2
[17] = test system: SARS-CoV-2; assay: Selectivity ratio of EC50 for antiviral activity against SARS-CoV-2 Omicron BA.1 harboring NSP5 T21I/E166V mutant infected in HEK293T cells to EC50 for antiviral activity against wild type SARS-CoV-2 Omicron BA.1 infected in HEK293T cells; assay type: functional
[18] = test system: SARS-CoV-2; assay: Selectivity ratio of EC50 for antiviral activity against SARS-CoV-2 Omicron BA.1 harboring NSP5 T21I mutant infected in HEK293T cells to EC50 for antiviral activity against wild type SARS-CoV-2 Omicron BA.1 infected in HEK293T cells; assay type: functional
[19] = test system: SARS-CoV-2; assay: Selectivity ratio of EC50 for antiviral activity against SARS-CoV-2 WA1 harboring NSP5 T21I mutant infected in HEK293T cells to EC50 for antiviral activity against wild type SARS-CoV-2 WA1 infected in HEK293T cells; assay type: functional
[20] = test system: SARS-CoV-2; assay: Selectivity ratio of EC50 for antiviral activity against SARS-CoV-2 WA1 harboring NSP5 T21I/E166V mutant infected in HEK293T cells to EC50 for antiviral activity against wild type SARS-CoV-2 WA1 infected in HEK293T cells; assay type: functional

SMILES | Ratio EC50 [1] | EC50 [2] | Ratio EC50 [3] | EC50 [4] | Ratio EC50 [5] | EC50 [6] | EC50 [7] | EC50 [8] | EC50 [9] | Ratio EC50 [10] | Ratio EC50 [11] | Ratio EC50 [12] | EC50 [13] | EC50 [14] | EC50 [15] | EC50 [16] | Ratio EC50 [17] | Ratio EC50 [18] | Ratio EC50 [19] | Ratio EC50 [20]
CCC(CC)COC(=O)[C@H](C)N[P@](=O)(OC[C@H]1O[C@@](C#N)(c2ccc3c(N)ncnn23)[C@H](O)[C@@H]1O)Oc1ccccc1 | 0.4 | 7 nM | 1.1 | 11 nM | 0.7 | 11 nM | 6 nM | 9 nM | 6 nM | 1.1 | 0.7 | 0.4 | – | – | – | – | – | – | – | –
CC(C)(C)[C@H](NC(=O)C(F)(F)F)C(=O)N1C[C@H]2[C@@H]([C@H]1C(=O)N[C@H](C#N)C[C@@H]1CCNC1=O)C2(C)C | – | 3900 nM | – | 610 nM | – | 4500 nM | 8600 nM | 2900 nM | 7300 nM | – | – | – | 280 nM | 8500 nM | 12000 nM | 80 nM | – | – | – | –
Cc1cc(C(=O)N[C@@H](Cc2cccc3ccccc23)C(=O)N[C@@H](CC(C)C)C(=O)N[C@H](C=O)C[C@@H]2CCCNC2=O)no1 | 0.2 | 170 nM | 2 | 390 nM | 1.5 | 130 nM | 150 nM | 490 nM | 80 nM | 0.6 | 0.9 | 0.5 | 680 nM | 170 nM | 150 nM | 360 nM | 0.5 | 2.1 | 1.8 | 0.8
